# Earlier results as cited in paper PMC8250858, “A Systematic Study of the Stability, Safety, and Efficacy of the de novo Designed Antimicrobial Peptide PepD2 and Its Modified Derivatives Against Acinetobacter baumannii” (Frontiers in Microbiology, 2021).
# Tests used:
# [1] = test system: 20 strains of A. baumannii; design: method as in Huang et al., 2012; settings: ref Huang et al., 2012; cited from earlier work
# [2] = test system: carbapenem-resistant A. baumannii; design: method as in Huang et al., 2012; settings: intraperitoneal injection twice a day for 3 days; ref Huang et al., 2012; cited from earlier work
substance,measurement,setting,value
C(LLKK)2C,MIC against 20 strains of A. baumannii,[1],40 to 75 µg/mL
same,Mice rescued,[2],rescued half of the mice
